This passage reports T/C results from PubChem BioAssay AID330 (DTP/NCI, 2004).

Where “and” joins values, the source holds several entries; their conditions need not be identical. Equal entries are not always repeated. Inconclusive results and toxic doses are left out.

This assay deals with P388 leukemia ip, CD2F1 mice, survival T/C. The experiment in a line: NCI In Vivo Anticancer Drug Screen. Data for tumor model P388 Leukemia (intraperitoneal) in CD2F1 (CDF1) mice. Particulars: endpoint: median survival time, higher = longer survival. A digest of the protocol:
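Mice carrying the transplanted tumor received test compound or vehicle. Survival was recorded in each group, and the value is the treated-group measurement divided by that of the vehicle-treated control group.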

Setting [1] is: dose: 60.0 mg/kg/injection, schedule: Q01DX005 (ip), vehicle: saline with Tween-80.
[2] abbreviates: dose: 120.0 mg/kg/injection, schedule: Q01DX005 (ip), vehicle: saline with Tween-80.
[3] abbreviates: dose: 25.0 mg/kg/injection, schedule: Q04DX003 (ip), vehicle: saline with Tween-80.
Setting [4] is: dose: 50.0 mg/kg/injection, schedule: Q04DX003 (ip), vehicle: saline with Tween-80.
Where [5] appears, read: dose: 50.0 mg/kg/injection, schedule: Q01DX005 (ip), vehicle: saline with Tween-80.
Where [6] appears, read: dose: 100.0 mg/kg/injection, schedule: Q01DX005 (ip), vehicle: saline with Tween-80.
[7] abbreviates: dose: 50.0 mg/kg/injection, schedule: Q01DX009 (ip), vehicle: saline.

Consider `Nc1nc2c(c(-c3nc(N)nc4c3Cc3ccccc3-4)n1)Cc1ccccc1-2`, for which the T/C by setting is: under setting [1], 98 % of control; under setting [2], 100 % of control.

In the case of `CCOc1ccc(Nc2ncnc3nc[nH]c23)cc1CN(CCCl)CCCl`, the T/C (dose: 0.88 mg/kg/injection, schedule: Q01DX009 (ip), vehicle: saline) was 154 % of control; the T/C (dose: 2.0 mg/kg/injection, schedule: Q01DX009 (ip), vehicle: saline) is 159 % of control; the T/C (dose: 3.0 mg/kg/injection, schedule: Q01DX009 (ip), vehicle: saline) is 122 % of control.

Regarding `NC(=S)NNC(=O)c1ccc([N+](=O)[O-])cc1`, the T/C reads like this: (dose: 25.0 mg/kg/injection, schedule: Q01DX009 (ip), vehicle: Klucel (hydroxypropylcellulose) (HPC)) 100 % of control; (dose: 50.0 mg/kg/injection, schedule: Q01DX009 (ip), vehicle: Klucel (hydroxypropylcellulose) (HPC)) 105 % of control; (dose: 100.0 mg/kg/injection, schedule: Q01DX009 (ip), vehicle: Klucel (hydroxypropylcellulose) (HPC)) 99 % of control; (dose: 200.0 mg/kg/injection, schedule: Q01DX009 (ip), vehicle: Klucel (hydroxypropylcellulose) (HPC)) 96 % of control.

With `CC1=CC[C@H]2C(=O)N(CCN(C)C)C(=O)[C@H]2C1`, the T/C runs as follows: (dose: 50.0 mg/kg/injection, schedule: Q01DX005 (ip), vehicle: saline) 100 % of control; (dose: 100.0 mg/kg/injection, schedule: Q01DX005 (ip), vehicle: saline) 100 % of control; (dose: 200.0 mg/kg/injection, schedule: Q01DX005 (ip), vehicle: saline) 98 % of control.

Take `COc1cc2c(c(O)c1O)C(=O)c1c(O)cc(C)cc1C2=O`: the T/C is, setting by setting: (dose: 5.0 mg/kg/injection, schedule: Q01DX009 (ip), vehicle: saline with Tween-80) 108 % of control; (dose: 10.0 mg/kg/injection, schedule: Q01DX009 (ip), vehicle: saline with Tween-80) 117 % of control; (dose: 20.0 mg/kg/injection, schedule: Q01DX009 (ip), vehicle: saline with Tween-80) 108 % of control.

As to `O=C(C=C(C(F)(F)F)C(F)(F)F)c1ccco1`, the T/C runs as follows: (dose: 12.5 mg/kg/injection, schedule: Q04DX003 (ip), vehicle: saline with Tween-80) 100 % of control; under setting [3], 109 % of control; under setting [4], 95 % of control.

Regarding `Cn1c2ccc(F)cc2c(=O)c2c(O)cc3c(c21)C=CC(C)(C)O3`, the T/C is, setting by setting: (dose: 50.0 mg/kg/injection, schedule: Q01DX005 (ip), vehicle: Klucel (hydroxypropylcellulose) (HPC)) 100 % of control; (dose: 100.0 mg/kg/injection, schedule: Q01DX005 (ip), vehicle: Klucel (hydroxypropylcellulose) (HPC)) 102 % of control; (dose: 200.0 mg/kg/injection, schedule: Q01DX005 (ip), vehicle: Klucel (hydroxypropylcellulose) (HPC)) 94 % of control.

With `CC1CC(=O)c2c(CO)nn(CCCO)c2C1` (centres undefined), the T/C was 101 % of control (dose: 15.0 mg/kg/injection, schedule: Q01DX005 (ip), vehicle: Klucel (hydroxypropylcellulose) (HPC)); 102 % of control (dose: 30.0 mg/kg/injection, schedule: Q01DX005 (ip), vehicle: Klucel (hydroxypropylcellulose) (HPC)); 101 % of control (dose: 60.0 mg/kg/injection, schedule: Q01DX005 (ip), vehicle: Klucel (hydroxypropylcellulose) (HPC)); 101 % of control (dose: 60.0 mg/kg/injection, schedule: Q01DX005 (ip), vehicle: saline).

Turning to `CCCCN=C(N)N/N=C/c1c2ccccc2c(C)c2ccccc12`, the T/C (dose: 12.5 mg/kg/injection, schedule: Q04DX002 (ip), vehicle: saline with Tween-80) was 104 % of control; the T/C (dose: 25.0 mg/kg/injection, schedule: Q04DX002 (ip), vehicle: saline with Tween-80) was 104 % of control; the T/C (dose: 50.0 mg/kg/injection, schedule: Q04DX002 (ip), vehicle: saline with Tween-80) was 104 % of control.

With `C/C=C1\CNC2Cc3c([nH]c4ccccc34)C(c3c(OC)ccc4c5c([nH]c34)C3(C(=O)OC)CC4CC(CC)C3N(CC5)C4)CC1C2C(=O)OC` (centres undefined), the T/C runs as follows: (dose: 1.56 mg/kg/injection, schedule: Q01DX009 (ip), vehicle: saline with Tween-80) 93 % of control; (dose: 3.12 mg/kg/injection, schedule: Q01DX009 (ip), vehicle: saline with Tween-80) 90 % of control; (dose: 12.5 mg/kg/injection, schedule: Q01DX009 (ip), vehicle: saline with Tween-80) 93 % of control; (dose: 25.0 mg/kg/injection, schedule: Q01DX009 (ip), vehicle: saline with Tween-80) 90 % of control.

`CC1C(C(=O)NCCc2ccccc2)CC2CCCCN21` (centres undefined): the T/C under setting [1] was 102 % of control and the T/C under setting [2] is 96 % of control.

Consider `O=c1cc(-c2ccccc2)[nH]c(=O)[nH]1`, for which the T/C by setting is: under setting [3], 99 % of control; under setting [4], 101 % of control; (dose: 100.0 mg/kg/injection, schedule: Q04DX003 (ip), vehicle: saline with Tween-80) 107 % of control.

Take `NNC(=O)CCCO`: the T/C by setting is: (dose: 50.0 mg/kg/injection, schedule: Q04DX003 (ip), vehicle: saline) 105 % of control; (dose: 100.0 mg/kg/injection, schedule: Q04DX003 (ip), vehicle: saline) 98 % of control; (dose: 200.0 mg/kg/injection, schedule: Q04DX003 (ip), vehicle: saline) 103 % of control; (dose: 400.0 mg/kg/injection, schedule: Q04DX003 (ip), vehicle: saline) 105 % of control.

Regarding `CCOC(=O)C1C(CCC#N)C(=O)CCC1(C#N)c1ccccc1` (centres undefined), the T/C reads like this: (dose: 100.0 mg/kg/injection, schedule: Q01DX001 (ip), vehicle: saline) 105 % of control; (dose: 200.0 mg/kg/injection, schedule: Q01DX001 (ip), vehicle: saline) 100 % of control; (dose: 400.0 mg/kg/injection, schedule: Q01DX001 (ip), vehicle: saline) 105 % of control.

Turning to `C[Si](C)(C)O/C=C1\CCc2ccccc2C1=O`, the T/C is 100 % of control under setting [5]; 101 % of control under setting [6]; 114 % of control (dose: 200.0 mg/kg/injection, schedule: Q01DX005 (ip), vehicle: saline with Tween-80).

Consider `c1cc[c]([Sn]([S]C23CC4CC(CC(C4)C2)C3)([c]2ccccc2)[c]2ccccc2)cc1`, for which the T/C (dose: 100.0 mg/kg/injection, schedule: Q04DX003 (ip), vehicle: suspension in saline) was 94 % of control; the T/C (dose: 200.0 mg/kg/injection, schedule: Q04DX003 (ip), vehicle: suspension in saline) was 98 % of control; the T/C (dose: 400.0 mg/kg/injection, schedule: Q04DX003 (ip), vehicle: suspension in saline) is 93 % of control.

`c1ccc(Cc2cc[n+](Cc3ccccc3)cc2)cc1`: the T/C (dose: 12.5 mg/kg/injection, schedule: Q01DX009 (ip), vehicle: saline) was 100 % of control; the T/C (dose: 25.0 mg/kg/injection, schedule: Q01DX009 (ip), vehicle: saline) is 101 % of control; the T/C under setting [7] was 101 % of control and 89 % of control.

`CC1OC(Nc2ncnc3nc[nH]c23)C(O)C(O)C1NC(=O)CNC(=O)CCCCCCCCC/C=C\C(C)(C)C` (centres undefined): the T/C (dose: 0.25 mg/kg/injection, schedule: Q01DX009 (ip), vehicle: distilled water + Tween-80) was 113 % of control; the T/C (dose: 0.5 mg/kg/injection, schedule: Q01DX009 (ip), vehicle: distilled water + Tween-80) was 113 % of control and 123 % of control; the T/C (dose: 4.0 mg/kg/injection, schedule: Q01DX009 (ip), vehicle: distilled water + Tween-80) is 100 % of control.

Consider `CCCCCCCCCCCCCCCC(=O)Nc1cccc2c[n+](CC(=O)c3ccc(NC(=O)CCC(=O)OC)cc3)ccc12`, for which the T/C runs as follows: (dose: 100.0 mg/kg/injection, schedule: Q01DX001 (ip), vehicle: saline with Tween-80) 90 % of control; (dose: 200.0 mg/kg/injection, schedule: Q01DX001 (ip), vehicle: saline with Tween-80) 86 % of control; (dose: 400.0 mg/kg/injection, schedule: Q01DX001 (ip), vehicle: saline with Tween-80) 109 % of control.

Turning to `CC1(C)CCCC2C1=NOC2O` (centres undefined), the T/C reads like this: under setting [7], 100 % of control; (dose: 100.0 mg/kg/injection, schedule: Q01DX009 (ip), vehicle: saline) 96 % of control; (dose: 200.0 mg/kg/injection, schedule: Q01DX009 (ip), vehicle: saline) 100 % of control.

As to `C=CCn1cc2c3c(cccc31)C1CC(C)CN(C)C1C2` (centres undefined), the T/C is 99 % of control under setting [5] and 111 % of control under setting [6].
